Assay results: the supplement of paper PMC10307832

Key:
Assay in all cases: relative viability (nuclei count vs DMSO), 5 days (fraction); higher = more cells survive
JZL-184 = compound: C1CN(CCC1C(C2=CC3=C(C=C2)OCO3)(C4=CC5=C(C=C4)OCO5)O)C(=O)OC6=CC=C(C=C6)[N+](=O)[O-] [JZL-184]
In short: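 Acceptance criteria were a control CV below 25% and at least one doubling per plate. Lung cancer cell lines in 1536-well plates got five library-drug doses (not always all listed) √10 apart by pinning and were left 5 days with no medium change. Viability divides treated-well nuclei by vehicle-well nuclei and is the median across plates. Nuclei were counted by MetaXpress from 4× Hoechst images.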

JZL-184 + Navitoclax = compound: C1CN(CCC1C(C2=CC3=C(C=C2)OCO3)(C4=CC5=C(C=C4)OCO5)O)C(=O)OC6=CC=C(C=C6)[N+](=O)[O-] [JZL-184] + CC1(C)CCC(c2ccc(Cl)cc2)=C(CN2CCN(c3ccc(C(=O)NS(=O)(=O)c4ccc(N[C@H](CCN5CCOCC5)CSc5ccccc5)c(S(=O)(=O)C(F)(F)F)c4)cc3)CC2)C1 [Navitoclax] (partner 0.5 µM)
In short: (§1)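 Lung cancer cell lines in 1536-well plates got either a single drug or a fixed anchor-drug dose together with five library-drug doses (not always all listed) in √10 steps, by pin tool, on the day after seeding. Nuclei were counted after 5 days, and relative viability is the treated-to-vehicle ratio of nuclei counts. Values are medians of duplicate plates.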

JZL-184 + OSI-027 = compound: C1CN(CCC1C(C2=CC3=C(C=C2)OCO3)(C4=CC5=C(C=C4)OCO5)O)C(=O)OC6=CC=C(C=C6)[N+](=O)[O-] [JZL-184] + COc1cccc2cc(-c3nc([C@H]4CC[C@H](C(=O)O)CC4)n4ncnc(N)c34)[nH]c12 [OSI-027] (partner 0.5 µM)
In short: as §1

JZL-184 + Pictilisib = compound: C1CN(CCC1C(C2=CC3=C(C=C2)OCO3)(C4=CC5=C(C=C4)OCO5)O)C(=O)OC6=CC=C(C=C6)[N+](=O)[O-] [JZL-184] + CS(=O)(=O)N1CCN(Cc2cc3nc(-c4cccc5[nH]ncc45)nc(N4CCOCC4)c3s2)CC1 [Pictilisib] (partner 1 µM)
In short: as §1

JZL-184 + Decitabine = compound: C1CN(CCC1C(C2=CC3=C(C=C2)OCO3)(C4=CC5=C(C=C4)OCO5)O)C(=O)OC6=CC=C(C=C6)[N+](=O)[O-] [JZL-184] + Nc1ncn([C@H]2C[C@H](O)[C@@H](CO)O2)c(=O)n1 [Decitabine] (partner 2 µM)
In short: as §1

Row | Cell Line | relative viability (JZL-184; 0.04 µM) | relative viability (JZL-184; 0.4 µM) | relative viability (JZL-184; 1.265 µM) | relative viability (JZL-184; 4 µM) | relative viability (JZL-184 + Navitoclax; first compound 0.04 µM) | relative viability (JZL-184 + Navitoclax; first compound 0.4 µM) | relative viability (JZL-184 + Navitoclax; first compound 1.265 µM) | relative viability (JZL-184 + Navitoclax; first compound 4 µM) | relative viability (JZL-184 + OSI-027; first compound 0.04 µM) | relative viability (JZL-184 + OSI-027; first compound 0.4 µM) | relative viability (JZL-184 + OSI-027; first compound 1.265 µM) | relative viability (JZL-184 + OSI-027; first compound 4 µM) | relative viability (JZL-184 + Pictilisib; first compound 0.04 µM) | relative viability (JZL-184 + Pictilisib; first compound 0.4 µM) | relative viability (JZL-184 + Pictilisib; first compound 1.265 µM) | relative viability (JZL-184 + Pictilisib; first compound 4 µM) | relative viability (JZL-184 + Decitabine; first compound 0.04 µM) | relative viability (JZL-184 + Decitabine; first compound 0.4 µM) | relative viability (JZL-184 + Decitabine; first compound 1.265 µM) | relative viability (JZL-184 + Decitabine; first compound 4 µM)
1 | NCI-H2023 | 1.15 | 0.921 | 1.01 | 0.944 | 1.07 | 0.942 | 1.02 | 0.963 | 0.407 | 0.381 | 0.405 | 0.317 | 0.27 | 0.22 | 0.301 | 0.241 | 0.254 | 0.225 | 0.175 | 0.213
2 | NCI-H2085 | 0.719 | 0.989 | 1.07 | 0.98 | 1.1 | 1.18 | 1.13 | 1.08 | 0.444 | 0.592 | 0.795 | 0.649 | 0.459 | 0.401 | 0.467 | 0.549 | – | 0.538 | 0.521 | 0.627
3 | NCI-H2087 | 1.15 | 0.99 | 1.04 | 1.11 | 1 | 0.997 | 1.18 | 0.996 | 0.519 | 0.514 | 0.579 | 0.436 | 0.824 | 0.677 | 0.934 | 1 | 0.271 | 0.301 | 0.415 | 0.237
4 | NCI-H2126 | 0.996 | 0.974 | 1.03 | 0.988 | 0.847 | 0.807 | 0.897 | 0.873 | 0.636 | 0.64 | 0.804 | 0.683 | 0.498 | 0.499 | 0.514 | 0.5 | 0.597 | 0.608 | 0.558 | 0.555
5 | NCI-H2170 | 1.1 | 0.948 | 1.02 | 0.928 | 0.66 | 0.589 | 0.621 | 0.547 | 0.721 | 0.758 | 0.759 | 0.682 | 0.341 | 0.309 | 0.332 | 0.331 | 0.497 | 0.475 | 0.473 | 0.476
6 | NCI-H2347 | 0.865 | 0.996 | 1.06 | 0.989 | 0.68 | 0.706 | 0.82 | 0.903 | 0.396 | 0.393 | 0.419 | 0.477 | 0.768 | 0.654 | 0.61 | 0.688 | – | 0.577 | 0.657 | 0.644
7 | NCI-H2405 | 1 | 0.982 | 1.11 | 1 | 0.97 | 0.847 | 1.03 | 0.884 | 0.608 | 0.608 | 0.651 | 0.615 | 0.531 | 0.444 | 0.493 | 0.486 | 0.792 | 0.694 | 0.738 | 0.767
8 | NCI-H3122 | 1.01 | 0.955 | 1.01 | 0.98 | 1.03 | 0.98 | 0.968 | 1.01 | 1.14 | 0.902 | 0.944 | 0.862 | 0.678 | 0.602 | 0.59 | 0.581 | 0.411 | 0.458 | 0.375 | 0.433
